Measurements taken from patent publication US9561231B2 (AbbVie Inc., priority 2012, dated 2017).
Blank lines part the entries; values can stand above or below the molecule they belong to.

How the values were obtained:
[1] = biological target: T1, first (BD1: amino acids K57-E168) bromodomain of BRD4 (Homo sapiens, UniProt O60885); test: TR-FRET bromodomain binding assay, BRD4 BD1; conditions: TR-FRET assay protocol (A-G, compound concentration range); Ki calculated from IC50, probe Kd and probe concentration; read-out: TR-FRET Binding Ki: BRD4 (BDI_K57-E168)
T1 construct: His-tagged first (BD1: amino acids K57-E168)
Summary of the method: (§1)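 Displacement of an Alexa647-labelled BET-inhibitor from His-tagged BD1 (K57-E168) or BD2 ([…]) measured by TR-FRET in pH 6.0 sodium phosphate buffer with NaCl, EDTA, Triton X-100 and DTT.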

[2] = biological target: T2, second (BD2: amino acids E352-E168) bromodomain of BRD4 (Homo sapiens, UniProt O60885); test: TR-FRET bromodomain binding assay, BRD4 BD2; conditions: TR-FRET assay protocol (A-G, compound concentration range); Ki calculated from IC50, probe Kd and probe concentration; read-out: TR-FRET Binding Ki: BRD4 (BDII_E352-M457)
T2 construct: protocol
Summary of the method: as §1

SMILES: CCN(CC)C(=O)c1cccc(-c2cc(=O)n(C)nc2-c2ccccc2Oc2ccccc2)c1 [Example 160, N,N-diethyl-3-[1-methyl-6-oxo-3-(2-phenoxyphenyl)-1,6-dihydropyridazin-4-yl]benzamide]
Ki [1]: 8540 nM
Ki [2]: 10200 nM

SMILES: CN(C)CCCNC(=O)c1cccc(-c2cc(=O)n(C)nc2-c2ccccc2Oc2ccccc2)c1 [Example 163, N-[3-(dimethylamino)propyl]-3-[1-methyl-6-oxo-3-(2-phenoxyphenyl)-1,6-dihydropyridazin-4-yl]benzamide]
Ki [1]: 1990 nM
Ki [2]: 366 nM

SMILES: Cn1nc(-c2ccccc2Oc2ccccc2)c(-c2ccc(C(=O)NCCC#N)cc2)cc1=O [Example 165, N-(2-cyanoethyl)-4-[1-methyl-6-oxo-3-(2-phenoxyphenyl)-1,6-dihydropyridazin-4-yl]benzamide]
Ki [1]: 567 nM
Ki [2]: 492 nM

SMILES: CCN(CC)C(=O)c1cc(F)cc(-c2cc(=O)n(C)nc2-c2ccccc2Oc2ccccc2)c1 [Example 167, N,N-diethyl-3-fluoro-5-[1-methyl-6-oxo-3-(2-phenoxyphenyl)-1,6-dihydropyridazin-4-yl]benzamide]
Ki [1]: 5430 nM
Ki [2]: 7370 nM

SMILES: Cn1nc(-c2ccccc2Oc2ccccc2)c(-c2ccc(C(=O)NC(C)(C)C)cc2)cc1=O [Example 168, N-tert-butyl-4-[1-methyl-6-oxo-3-(2-phenoxyphenyl)-1,6-dihydropyridazin-4-yl]benzamide]
Ki [1]: 1070 nM
Ki [2]: 993 nM

SMILES: CC(C)CNC(=O)c1ccc(-c2cc(=O)n(C)nc2-c2ccccc2Oc2ccccc2)cc1 [Example 170, 4-[1-methyl-6-oxo-3-(2-phenoxyphenyl)-1,6-dihydropyridazin-4-yl]-N-(2-methylpropyl)benzamide]
Ki [1]: 1670 nM
Ki [2]: 1620 nM

SMILES: COCCCNC(=O)c1ccc(-c2cc(=O)n(C)nc2-c2ccccc2Oc2ccccc2)cc1 [Example 171, N-(3-methoxypropyl)-4-[1-methyl-6-oxo-3-(2-phenoxyphenyl)-1,6-dihydropyridazin-4-yl]benzamide]
Ki [1]: 253 nM
Ki [2]: 215 nM

SMILES: COCCNC(=O)c1ccc(-c2cc(=O)n(C)nc2-c2ccccc2Oc2ccccc2)cc1 [Example 173, N-(2-methoxyethyl)-4-[1-methyl-6-oxo-3-(2-phenoxyphenyl)-1,6-dihydropyridazin-4-yl]benzamide]
Ki [1]: 805 nM
Ki [2]: 545 nM

SMILES: Cc1nnc(-c2cccc(-c3cc(=O)n(C)nc3-c3ccccc3Oc3ccccc3)c2)o1 [Example 176, 2-methyl-5-[3-(5-methyl-1,3,4-oxadiazol-2-yl)phenyl]-6-(2-phenoxyphenyl)pyridazin-3(2H)-one]
Ki [1]: 3660 nM
Ki [2]: 2080 nM

SMILES: CCN(CC)C(=O)c1cc(-c2cc(=O)n(C)nc2-c2ccccc2Oc2ccccc2)ccc1F [Example 181, N,N-diethyl-2-fluoro-5-[1-methyl-6-oxo-3-(2-phenoxyphenyl)-1,6-dihydropyridazin-4-yl]benzamide]
Ki [1]: 3950 nM
Ki [2]: 6160 nM

SMILES: Cn1nc(-c2ccccc2Oc2ccccc2)c(-c2ccc(C(=O)NCc3ccccc3)cc2)cc1=O [Example 182, N-benzyl-4-[1-methyl-6-oxo-3-(2-phenoxyphenyl)-1,6-dihydropyridazin-4-yl]benzamide]
Ki [1]: 531 nM
Ki [2]: 174 nM

Other lines, results leading:

Ki [1]: 5450 nM
Ki [2]: 8420 nM
SMILES: CNS(=O)(=O)c1ccc(-c2cc(=O)n(C)nc2-c2ccccc2Oc2ccccc2)cc1 [Example 159, N-methyl-4-[1-methyl-6-oxo-3-(2-phenoxyphenyl)-1,6-dihydropyridazin-4-yl]benzenesulfonamide]

Ki [1]: 109 nM
Ki [2]: 75.1 nM
SMILES: Cn1nc(-c2ccccc2Oc2ccccc2)c(-c2ccc(NCCN3CCOCC3)nc2)cc1=O [Example 162, 2-methyl-5-(6-{[2-(morpholin-4-yl)ethyl]amino}pyridin-3-yl)-6-(2-phenoxyphenyl)pyridazin-3(2H)-one]

Ki [1]: 1510 nM
Ki [2]: 245 nM
SMILES: Cn1nc(-c2ccccc2Oc2ccccc2)c(-c2ccc(NCc3ccccc3)nc2)cc1=O [Example 164, 5-[6-(benzylamino)pyridin-3-yl]-2-methyl-6-(2-phenoxyphenyl)pyridazin-3(2H)-one]

Ki [1]: 705 nM
Ki [2]: 1010 nM
SMILES: Cc1cc(-c2cc(=O)n(C)nc2-c2ccccc2Oc2ccccc2)cnc1N1CCOCC1 [Example 166, 2-methyl-5-[5-methyl-6-(morpholin-4-yl)pyridin-3-yl]-6-(2-phenoxyphenyl)pyridazin-3(2H)-one]

Ki [1]: 599 nM
Ki [2]: 562 nM
SMILES: Cn1nc(-c2ccccc2Oc2ccccc2)c(-c2ccc(C(=O)NC3CCCC3)cc2)cc1=O [Example 169, N-cyclopentyl-4-[1-methyl-6-oxo-3-(2-phenoxyphenyl)-1,6-dihydropyridazin-4-yl]benzamide]

Ki [1]: 572 nM
Ki [2]: 593 nM
SMILES: Cn1nc(-c2ccccc2Oc2ccccc2)c(-c2cnn(CCN3CCOCC3)c2)cc1=O [Example 172, 2-methyl-5-{1-[2-(morpholin-4-yl)ethyl]-1H-pyrazol-4-yl}-6-(2-phenoxyphenyl)pyridazin-3(2H)-one]

Ki [1]: 854 nM
Ki [2]: 764 nM
SMILES: CN1CCN(c2cc(-c3cc(=O)n(C)nc3-c3ccccc3Oc3ccccc3)ccn2)CC1 [Example 174, 2-methyl-5-[2-(4-methylpiperazin-1-yl)pyridin-4-yl]-6-(2-phenoxyphenyl)pyridazin-3(2H)-one]

Ki [1]: 2950 nM
Ki [2]: 2490 nM
SMILES: Cn1nc(-c2ccccc2Oc2ccccc2)c(-c2cccc(C(=O)N3CCOCC3)c2)cc1=O [Example 175, 2-methyl-5-[3-(morpholin-4-ylcarbonyl)phenyl]-6-(2-phenoxyphenyl)pyridazin-3(2H)-one]

Ki [1]: 4170 nM
Ki [2]: 1070 nM
SMILES: Cn1nc(-c2ccccc2Oc2ccccc2)c(-c2cccc(C(=O)NC3CC3)c2)cc1=O [Example 177, N-cyclopropyl-3-[1-methyl-6-oxo-3-(2-phenoxyphenyl)-1,6-dihydropyridazin-4-yl]benzamide]

Ki [1]: 3340 nM
Ki [2]: 4540 nM
SMILES: Cn1nc(-c2ccccc2Oc2ccccc2)c(-c2ccc(S(=O)(=O)N3CCCC3)cc2)cc1=O [Example 178, 2-methyl-6-(2-phenoxyphenyl)-5-[4-(pyrrolidin-1-ylsulfonyl)phenyl]pyridazin-3(2H)-one]

Ki [1]: 923 nM
Ki [2]: 488 nM
SMILES: Cn1nc(-c2ccccc2Oc2ccccc2)c(-c2ccc(N3CCOCC3)nc2)cc1=O [Example 179, 2-methyl-5-[6-(morpholin-4-yl)pyridin-3-yl]-6-(2-phenoxyphenyl)pyridazin-3(2H)-one]

Ki [1]: 256 nM
Ki [2]: 166 nM
SMILES: Cn1nc(-c2ccccc2Oc2ccccc2)c(-c2ccc(C(=O)N3CCCC3)cc2)cc1=O [Example 183, 2-methyl-6-(2-phenoxyphenyl)-5-[4-(pyrrolidin-1-ylcarbonyl)phenyl]pyridazin-3(2H)-one]

Ki [1]: 2140 nM
Ki [2]: 1960 nM
SMILES: Cn1nc(-c2ccccc2Oc2ccccc2)c(-c2ccc(N3CCCCC3)nc2)cc1=O [Example 184, 2-methyl-6-(2-phenoxyphenyl)-5-[6-(piperidin-1-yl)pyridin-3-yl]pyridazin-3(2H)-one]

Ki [1]: 832 nM
Ki [2]: 324 nM
SMILES: Cn1nc(-c2ccccc2Oc2ccccc2)c(-c2ccc(C(=O)NC3CCCCC3)cc2)cc1=O [Example 185, N-cyclohexyl-4-[1-methyl-6-oxo-3-(2-phenoxyphenyl)-1,6-dihydropyridazin-4-yl]benzamide]
